Test results as given in patent US20250160275A1, “COMPOUNDS FOR MODIFYING MEIOTIC RECOMBINATION AND METHODS RELATING THERETO” (The University of North Carolina at Chapel Hill, priority 2022, published 2025).

Columns and labels:
Assay type in all cases: in vivo
[1] = test system: flowering Arabidopsis thaliana plants; assay: visual fluorescent pollen transgene assay, crossover frequency in interval I2b (chromosome 2); conditions: for NPD (Nonparental Ditype pollen tetrads) / PD (Parental Ditype pollen tetrads) / TT (Tetratype pollen tetrads) / genetic map distance: 0.01% Silwet in water, Exp.(1); for genetic map distance: Water control 5.11 cM
[2] = test system: flowering Arabidopsis thaliana plants; assay: visual fluorescent pollen transgene assay, crossover frequency in interval I2a (chromosome 2)
[3] = test system: flowering Arabidopsis thaliana plants; assay: visual fluorescent pollen transgene assay, crossover frequency in interval I5d (chromosome 5)
Procedure: An aqueous solution of 3-aminobutanoic acid was applied to flowering Arabidopsis thaliana plants to enhance the frequency of meiotic recombination (crossovers). Silwet, a spraying adjuvant, was added to the 3-aminobutanoic acid solution at a volume/volume concentration of 0.01%. The solution was applied to the plants by foliar spraying until the plants were drenched. Several concentrations of 3-aminobutanoic acid were used including 0.1, 1, 7.5, 10, 12.5 and 15 mM. As a control, other plants (i.e., control plants) were treated with an aqueous 0.01% solution of Silwet by foliar spraying the solution on the plants until the plants were drenched.
(§1) Crossover frequencies were measured in pollen from treated and control plants using a visual fluorescent pollen transgene assay as described in Francis et al., Proc Natl Acad Sci USA. 2007; 104 (10): 3913-3918. In this assay pollen tetrads are scored as Parental Ditype (PD), Nonparental Ditype (NPD) or Tetratype (TT) and the frequency of those tetrad classes are used to calculate a genetic map distances in centiMorgans (cM) between reporter genes expressing fluorescent proteins. The genetic map distances between a pair of markers on chromosome 5 were compared between control plants and treated plants. The genetic interval between the two markers was designated as I5d. […] In Table 2, each experimental treatment is paired with data from control plants that were treated and scored together and designated with an experiment number in the first column.
An aqueous solution phenethyl isothiocyanate (IUPAC name: 2-isothiocyanatoethylbenzene) was applied to flowering Arabidopsis thaliana plants to enhance the frequency of meiotic recombination (crossovers). Phenethyl isothiocyanate in an aqueous solution containing 10% DMSO and 0.01% Silwet was applied by foliar spray until the plants were drenched. The phenethyl isothiocyanate was first dissolved in 100% DMSO and then diluted to its final concentration with 0.0.1% Silwet in water. Several concentrations of phenethyl isothiocyanate were used including 7.5, 10, and 12.5 mM. Control plants were treated with an aqueous solution of 10% DMSO and 0.01% Silwet by foliar spraying the solution on the control plants until the control plants were drenched.
as §1, with “4,” for “2,”
An aqueous solution BIX-01294 (IUPAC name: N-(1-benzylpiperidin-4-yl)-6,7-dimethoxy-2-(4-methyl-1,4-diazepan-1-yl) quinazolin-4-amine) was applied to flowering Arabidopsis thaliana plants to enhance the frequency of meiotic recombination (crossovers). BIX-01294 in an aqueous solution containing 10% DMSO and 0.01% Silwet was applied by foliar spray until the plants were drenched. The BIX-01294 was first dissolved in 100% DMSO and then diluted to its final concentration with 0.0.1% Silwet in water. Several concentrations of […] were used including 0.5, 1, 2.5 and 5 mM. Control plants were treated with an aqueous solution of 10% DMSO and 0.01% Silwet by foliar spraying the solution on the control plants until the control plants were drenched. […]

[4] = 2.5 mM foliar spray, Example 4, Exp.(1)
[5] = 7.5 mM foliar spray, Example 4, Exp.(1)
[6] = 10 mM foliar spray, Example 4, Exp.(1)
[7] = 0.1 mM foliar spray, 0.01% Silwet in water, Exp.(1)
[8] = 1 mM foliar spray, 0.01% Silwet in water, Exp.(2)
[9] = 10 mM foliar spray, 0.01% Silwet in water, Exp.(1)
[10] = 12.5 mM foliar spray, 0.01% Silwet in water, Exp.(3)
[11] = 15 mM foliar spray, 0.01% Silwet in water, Exp.(3)
[12] = 0.1 mM foliar spray, 10% DMSO and 0.01% Silwet, Exp.(1)
[13] = 0.5 mM foliar spray, 10% DMSO and 0.01% Silwet, Exp.(1)
[14] = 1 mM foliar spray, 10% DMSO and 0.01% Silwet, Exp.(1)
[15] = 2.5 mM foliar spray, 10% DMSO and 0.01% Silwet, Exp.(2)
[16] = 5 mM foliar spray, 10% DMSO and 0.01% Silwet, Exp.(2)
[17] = 1 mM foliar spray, 10% DMSO and 0.01% Silwet, Exp.(2)
[18] = 2.5 mM foliar spray, 10% DMSO and 0.01% Silwet, Exp.(3)
[19] = 5 mM foliar spray, 10% DMSO and 0.01% Silwet, Exp.(3)

In the case of `CC(N)CC(=O)O` (stereo not shown) [3-aminobutanoic acid], the “NPD (Nonparental Ditype pollen tetrads)” value ([1]; 7.5 mM foliar spray) is reported as 3, the “PD (Parental Ditype pollen tetrads)” value ([1]; 7.5 mM foliar spray) is reported as 867 and the “TT (Tetratype pollen tetrads)” value ([1]; 7.5 mM foliar spray) is reported as 128. For the same compound, the genetic map distance ([1]; 7.5 mM foliar spray, p-value 0.006) was 7.31 cM, the “NPD (Nonparental Ditype pollen tetrads)” value ([1]; 10 mM foliar spray) was 1 and the “PD (Parental Ditype pollen tetrads)” value ([1]; 10 mM foliar spray) was 866. The “TT (Tetratype pollen tetrads)” value ([1]; 10 mM foliar spray) was 140, the genetic map distance ([1]; 10 mM foliar spray, p-value 0.003) was 7.25 cM and the “NPD (Nonparental Ditype pollen tetrads)” value ([1]; 12.5 mM foliar spray) was 0. The “PD (Parental Ditype pollen tetrads)” value ([1]; 12.5 mM foliar spray) was 865, the “TT (Tetratype pollen tetrads)” value ([1]; 12.5 mM foliar spray) was 155 and the genetic map distance ([1]; 12.5 mM foliar spray, p-value 0.000) was 7.60 cM. The “meiotic recombination in treated plants compared to control plants” value ([1]; all three concentrations (7.5, 10, 12.5 mM)) was “increased meiotic recombination”, the “NPD (Nonparental Ditype pollen tetrads)” value [2, 4] was 0 and the “PD (Parental Ditype pollen tetrads)” value [2, 4] was 924. For the same compound, the “TT (Tetratype pollen tetrads)” value [2, 4] was 67, the genetic map distance ([2]; 2.5 mM foliar spray, Example 4, Exp.(1), DMSO control 2.32 cM, p-value 0.021) was 3.38 cM and the “NPD (Nonparental Ditype pollen tetrads)” value [2, 5] was 0. For the same compound, the “PD (Parental Ditype pollen tetrads)” value [2, 5] was 914, the “TT (Tetratype pollen tetrads)” value [2, 5] was 66 and the genetic map distance ([2]; 7.5 mM foliar spray, Example 4, Exp.(1), DMSO control 2.32 cM, p-value 0.023) was 3.37 cM. For the same compound, the “NPD (Nonparental Ditype pollen tetrads)” value [2, 6] was 0, the “PD (Parental Ditype pollen tetrads)” value [2, 6] was 941 and the “TT (Tetratype pollen tetrads)” value [2, 6] was 60. The genetic map distance ([2]; 10 mM foliar spray, Example 4, Exp.(1), DMSO control 2.32 cM, p-value 0.090) was 3.00 cM, the “meiotic recombination in treated plants compared to control plants” value ([2]; Example 4, 2.5 and 7.5 mM, two of three concentrations (not 10 mM)) was “increased meiotic recombination” and the “NPD (Nonparental Ditype pollen tetrads)” value [3, 7] was 0. The “PD (Parental Ditype pollen tetrads)” value [3, 7] was 926, the “TT (Tetratype pollen tetrads)” value [3, 7] was 178 and the genetic map distance ([3]; 0.1 mM foliar spray, 0.01% Silwet in water, Exp.(1), Water control 5.89 cM, p-value 0.002) was 8.06 cM. The “NPD (Nonparental Ditype pollen tetrads)” value [3, 8] was 0, the “PD (Parental Ditype pollen tetrads)” value [3, 8] was 983 and the “TT (Tetratype pollen tetrads)” value [3, 8] was 169. For the same compound, the genetic map distance ([3]; 1 mM foliar spray, 0.01% Silwet in water, Exp.(2), Water control 5.37 cM, p-value 0.003) was 7.34 cM, the “NPD (Nonparental Ditype pollen tetrads)” value [3, 9] was 0 and the “PD (Parental Ditype pollen tetrads)” value [3, 9] was 1092. The “TT (Tetratype pollen tetrads)” value [3, 9] was 221, the genetic map distance ([3]; 10 mM foliar spray, 0.01% Silwet in water, Exp.(1), Water control 5.89 cM, p-value 0.000) was 8.42 cM and the “NPD (Nonparental Ditype pollen tetrads)” value [3, 10] was 4. For the same compound, the “PD (Parental Ditype pollen tetrads)” value [3, 10] was 908, the “TT (Tetratype pollen tetrads)” value [3, 10] was 166 and the genetic map distance ([3]; 12.5 mM foliar spray, 0.01% Silwet in water, Exp.(3), Water control 5.50 cM, p-value 0.000) was 8.81 cM. For the same compound, the “NPD (Nonparental Ditype pollen tetrads)” value [3, 11] was 2, the “PD (Parental Ditype pollen tetrads)” value [3, 11] was 849 and the “TT (Tetratype pollen tetrads)” value [3, 11] was 160. For the same compound, the genetic map distance ([3]; 15 mM foliar spray, 0.01% Silwet in water, Exp.(3), Water control 5.50 cM, p-value 0.000) was 8.51 cM and the “meiotic recombination in treated plants compared to controls” value ([3]; all concentrations (Table 2: 0.1, 1, 10, 12.5, 15 mM)) was “increase meiotic recombination”.

With `COc1cc2nc(N3CCCN(C)CC3)nc(NC3CCN(Cc4ccccc4)CC3)c2cc1OC` [BIX-01294, N-(1-benzylpiperidin-4-yl)-6,7-dimethoxy-2-(4-methyl-1,4-diazepan-1-yl) quinazolin-4-amine] the “NPD (Nonparental Ditype pollen tetrads)” value [2, 12] was 0, the “PD (Parental Ditype pollen tetrads)” value [2, 12] was 908 and the “TT (Tetratype pollen tetrads)” value [2, 12] was 59. For the same compound, the genetic map distance ([2]; 0.1 mM foliar spray, 10% DMSO and 0.01% Silwet, Exp.(1), DMSO control 2.19 cM, p-value 0.046) was 3.05 cM, the “NPD (Nonparental Ditype pollen tetrads)” value [2, 13] was 0 and the “PD (Parental Ditype pollen tetrads)” value [2, 13] was 922. For the same compound, the “TT (Tetratype pollen tetrads)” value [2, 13] was 84, the genetic map distance ([2]; 0.5 mM foliar spray, 10% DMSO and 0.01% Silwet, Exp.(1), DMSO control 2.19 cM, p-value 0.000) was 4.17 cM and the “NPD (Nonparental Ditype pollen tetrads)” value [2, 14] was 0. For the same compound, the “PD (Parental Ditype pollen tetrads)” value [2, 14] was 988, the “TT (Tetratype pollen tetrads)” value [2, 14] was 99 and the genetic map distance ([2]; 1 mM foliar spray, 10% DMSO and 0.01% Silwet, Exp.(1), DMSO control 2.19 cM, p-value 0.000) was 4.55 cM. For the same compound, the “NPD (Nonparental Ditype pollen tetrads)” value [2, 15] was 0, the “PD (Parental Ditype pollen tetrads)” value [2, 15] was 777 and the “TT (Tetratype pollen tetrads)” value [2, 15] was 55. The genetic map distance ([2]; 2.5 mM foliar spray, 10% DMSO and 0.01% Silwet, Exp.(2), DMSO control 2.75 cM, p-value 0.163) was 3.31 cM, the “NPD (Nonparental Ditype pollen tetrads)” value [2, 16] was 0 and the “PD (Parental Ditype pollen tetrads)” value [2, 16] was 836. For the same compound, the “TT (Tetratype pollen tetrads)” value [2, 16] was 43, the genetic map distance ([2]; 5 mM foliar spray, 10% DMSO and 0.01% Silwet, Exp.(2), DMSO control 2.75 cM, p-value 0.725) was 2.45 cM and the “meiotic recombination in treated plants compared to control plants” value ([2]; 0.1, 0.5 and 1 mM, three of five concentrations (not 2.5, 5 mM)) was “increased meiotic recombination”. For the same compound, the “NPD (Nonparental Ditype pollen tetrads)” value [3, 13] was 1, the “PD (Parental Ditype pollen tetrads)” value [3, 13] was 936 and the “TT (Tetratype pollen tetrads)” value [3, 13] was 185. The genetic map distance ([3]; 0.5 mM foliar spray, 10% DMSO and 0.01% Silwet, Exp.(1), DMSO control 6.04 cM, p-value 0.001) was 8.51 cM, the “NPD (Nonparental Ditype pollen tetrads)” value [3, 17] was 0 and the “PD (Parental Ditype pollen tetrads)” value [3, 17] was 829. The “TT (Tetratype pollen tetrads)” value [3, 17] was 131, the genetic map distance ([3]; 1 mM foliar spray, 10% DMSO and 0.01% Silwet, Exp.(2), DMSO control 6.73 cM, p-value 0.454) was 6.82 cM and the “NPD (Nonparental Ditype pollen tetrads)” value [3, 18] was 5. For the same compound, the “PD (Parental Ditype pollen tetrads)” value [3, 18] was 888, the “TT (Tetratype pollen tetrads)” value [3, 18] was 169 and the genetic map distance ([3]; 2.5 mM foliar spray, 10% DMSO and 0.01% Silwet, Exp.(3), DMSO control 5.31 cM, p-value 0.000) was 9.37 cM. For the same compound, the “NPD (Nonparental Ditype pollen tetrads)” value [3, 19] was 4, the “PD (Parental Ditype pollen tetrads)” value [3, 19] was 938 and the “TT (Tetratype pollen tetrads)” value [3, 19] was 156. For the same compound, the genetic map distance ([3]; 5 mM foliar spray, 10% DMSO and 0.01% Silwet, Exp.(3), DMSO control 5.31 cM, p-value 0.001) was 8.20 cM and the “meiotic recombination in treated plants compared to controls” value ([3]; 0.5, 2.5 and 5 mM, three of four concentrations (not 1 mM)) was “increase meiotic recombination”.
